Measured values reported in patent US20240009191A1, “METHOD AND COMPOSITION FOR THE TREATMENT OF DISEASE” (DIMERIX BIOSCIENCE PTY LTD, priority 2019, published 2024).

Target: T1, AT1R-CXCR2 heteromer (Homo sapiens, UniProt P25025+P30556)
T1 sequence (P30556 1-359): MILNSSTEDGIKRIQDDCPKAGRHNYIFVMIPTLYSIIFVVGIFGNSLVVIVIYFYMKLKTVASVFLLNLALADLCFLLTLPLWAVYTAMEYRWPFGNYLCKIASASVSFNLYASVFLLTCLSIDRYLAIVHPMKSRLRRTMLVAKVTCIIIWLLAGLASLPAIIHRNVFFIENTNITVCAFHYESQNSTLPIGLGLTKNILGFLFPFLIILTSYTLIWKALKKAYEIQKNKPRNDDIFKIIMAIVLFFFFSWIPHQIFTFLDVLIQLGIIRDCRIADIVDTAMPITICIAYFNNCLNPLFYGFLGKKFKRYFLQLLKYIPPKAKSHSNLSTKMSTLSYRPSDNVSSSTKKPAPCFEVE
T1 sequence (P25025 1-360): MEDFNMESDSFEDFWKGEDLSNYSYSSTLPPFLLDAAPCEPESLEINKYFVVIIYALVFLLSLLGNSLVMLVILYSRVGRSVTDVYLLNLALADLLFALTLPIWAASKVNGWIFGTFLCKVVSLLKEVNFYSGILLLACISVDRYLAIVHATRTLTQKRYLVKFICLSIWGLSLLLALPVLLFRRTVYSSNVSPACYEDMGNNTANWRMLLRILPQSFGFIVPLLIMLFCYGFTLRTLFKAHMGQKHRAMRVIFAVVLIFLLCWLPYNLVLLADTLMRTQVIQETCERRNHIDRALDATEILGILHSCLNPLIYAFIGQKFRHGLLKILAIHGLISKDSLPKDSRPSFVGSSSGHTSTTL
Test: BRET trafficking of AT1R/Rluc8 (Venus/Kras, Rab5) with unlabelled CXCR2, pre-treatment with vehicle or antagonists/inverse agonists
Type: cell-based
Details: pre-treatment with vehicle, 100 nM AngII only or with 10 nM CXCL8
Protocol: HEK293FT cells were seeded in 6-well plates at a density of approximately 700,000 cells/well and maintained at 37° C., 5% CO2 in Complete Media (DMEM containing 0.3 mg/ml glutamine, 100 IU/ml penicillin and 100 μg/ml streptomycin (Gibco/Thermo Fisher)) supplemented with 10% fetal calf serum (FCS; Bovogen). Transient transfections were carried out 24 h after seeding using FuGene6™ (Promega) according to manufacturer instructions. 24 h post-transfection, cells were washed with PBS, detached using 0.05% trypsin/0.53 mM EDTA, resuspended in HEPES-buffered phenol red free Complete Media containing 5% FCS and added to a poly-L-lysine-coated white 96-well microplate (Greiner Bio-One). 48 h post-transfection, bioluminescence resonance energy transfer (BRET) assays were carried out following pre-incubation of cells with EnduRen™ (Promega) at a final concentration of 30 μM, at 37° C., 5% CO2 for 2 h. BRET measurements were taken at 37° C. using the LUMlstar™ or CLARIOstar™ (BMG Labtech).
For antagonist/inverse agonist assays, cells were pre-incubated with EnduRen for 1.5 hours, followed by the addition of vehicle or antagonists/inverse agonists (10 μM) for another 30 minutes.
The BRET signal observed between interacting proteins is normalized by subtracting the background BRET ratio. […] In the following examples, the second calculation will be used and the signal is described as ligand-induced BRET′. Furthermore, for data shown in FIGS. 4 to 20, all data points in a given set are corrected relative to the final data point prior to agonist treatment, which is fixed to zero. In keys on FIGS. 7 to 20, “>” means “followed by after 50 minutes”, with agonists added at time zero on the x-axes.
Prior to agonist treatment (added at 0 minutes), a baseline BRET signal was recorded for each of the combinations for 20 minutes. Data were calculated as ligand-induced BRET relative to the ‘vehicle followed by vehicle’ (veh>veh) data set.

Angiotensin II [AngII]
proximity of AT1R/Rluc8 to Venus/Kras (BRET) (FIG. 19A, 19B): marked reduction
proximity of AT1R/Rluc8 to Venus/Rab5 (BRET) (FIG. 20A, 20B): marked increase
